One series has as its system T. gondii RHΔhxgprt. The series is classed as cell-based, Toxoplasma gondii. The note with it: for apicoplast replication: 1st infection cycle, T. gondii RHΔhxgprt.
Another series deals with cultured mammalian cells. The note with it: cited from earlier work.
Another series has as its system T. gondii YFP. The series can be described thus: T. gondii replication assay in two successive infection cycles. In kind it is cell-based, Toxoplasma gondii. Conditions: exposure to less than 1 μM in the first cycle.

On to `CC[C@H]1OC(=O)[C@H](C)[C@@H](O[C@H]2C[C@@](C)(OC)[C@@H](O)[C@H](C)O2)[C@H](C)[C@@H](O[C@@H]2O[C@H](C)C[C@H](N(C)C)[C@H]2O)[C@](C)(O)C[C@@H](C)CN(CCCc2ccccc2)[C@H](C)[C@@H](O)[C@]1(C)O` [Compound 30, N-phenylpropyl-azithromycin], for which the apicoplast replication result with T. gondii RHΔhxgprt is recorded as “significantly impaired”. As to `CC[C@H]1OC(=O)[C@H](C)[C@@H](O[C@H]2C[C@@](C)(OC)[C@@H](O)[C@H](C)O2)[C@H](C)[C@@H](O[C@@H]2O[C@H](C)C[C@H](N(C)C)[C@H]2O)[C@](C)(O)C[C@@H](C)CN(C)[C@H](C)[C@@H](O)[C@]1(C)O` [Compound 3, Azithromycin], the “concentration showing toxicity against cultured mammalian cells” value in the series on cultured mammalian cells was roughly 100 µM. Further, the “reduction in parasite titers by the end of the second infection cycle” value with T. gondii YFP is given as greater than 2 fold. Besides, the apicoplast replication entry in the series on T. gondii RHΔhxgprt is “significantly impaired”. In the case of Spiramycin, the apicoplast replication result in the series with T. gondii RHΔhxgprt is “significantly impaired”. `CC[C@H]1OC(=O)[C@H](C)[C@@H](O[C@H]2C[C@@](C)(OC)[C@@H](O)[C@H](C)O2)[C@H](C)[C@@H](O[C@@H]2O[C@H](C)C[C@H](N(C)C)[C@H]2O)[C@](C)(O)C[C@@H](C)CN(Cc2ccccc2)[C@H](C)[C@@H](O)[C@]1(C)O` [Compound 11, N-benzyl-azithromycin]: the apicoplast replication entry with T. gondii RHΔhxgprt was “significantly impaired”.

Turning to `CCc1nc(N)nc(N)c1-c1ccc(Cl)cc1` [Pyrimethamine], in the series with T. gondii RHΔhxgprt (either infection cycle), the “ratio of plastid to nuclear DNA” value is listed as “did not affect”.

Source of the values: publication PMC3085955 (Journal of medicinal chemistry, 2011).
